Data reported in patent US8580512B2, “Yeast-based methods of identifying nucleic acids and compounds for treating neurodegenerative diseases” (University of Alabama, priority 2008, dated 2013).

Columns and labels:
S. pombe cells [1] = experiment: Reversal of rotenone-induced proliferation inhibition; assay type: cell-based, Schizosaccharomyces pombe
Protocol: Phosphatidylethanolamine (PE) deficiency results in a rotenone-sensitive phenotype that can be suppressed by ethanolamine. Log phase cultures were suspended at 10^7 cells/ml, serially diluted (1:10), and spotted (5 μl per spot) onto YES (Control) or YES containing 16 μM rotenone (+Rotenone).
Oxidative stress has been detected in the brains of deceased Parkinson's disease patients, and in rats exposed to rotenone as a model for Parkinson's disease.

S. pombe cells [2] = experiment: DIC microscopy of cell morphology; assay type: cell-based, Schizosaccharomyces pombe; conditions: wild type, rotenone 6.4 μg/ml, 4 to 24 hrs
Excerpt: To determine whether rotenone induces abnormalities in S. pombe cell morphology, rotenone-treated and untreated S. pombe cells were compared by DIC microscopy.

S. pombe cells [3] = experiment: MitoTracker Green FM staining of mitochondrial localization; assay type: cell-based, Schizosaccharomyces pombe
Protocol: (§1) MitoTracker Green FM and dihydroethidium (DHE) staining of S. pombe cells. Mitochondrial localization was detected by staining S. pombe cells with MitoTracker Green FM (MTGreen) based on the protocol recommended by the manufacturer (Invitrogen). Briefly, S. pombe cells were cultured overnight in YES liquid medium at 30° C. to mid-log phase. Where indicated, rotenone stock solution was added to portions of each culture to a final concentration of 6.4 μg/ml. Equivalent volumes of DMSO were added to control cultures. Stock solutions of MTGreen (5 μM in DMSO) were prepared just prior to use. Staining was carried out by adding 10 μl of MTGreen stock solution to 1 ml of cell culture and incubating at 30° C. with shaking for 20 min. Stained cells were washed once with YES and resuspended in approximately 10 μl of YES prior to preparation of samples for microscopy. Stained cells were concentrated by centrifugation to a volume of approximately 10 μl. DHE staining was carried out as described by Huard et al., (2008) Cell Res. 18: 961-973, incorporated herein by reference in its entirety. Stained cells were visualized by epifluorescence microscopy using a Nikon 90i automated epifluorescence microscope system operated using Nikon NIS-Elements software. Images were captured using a CoolSNAP HQ2 monochrome CCD camera (Photometrics). RAW images were level-adjusted using the Adobe PhotoShop CS3 software application.
Rotenone induces disruption of mitochondrial localization in S. pombe cells. Similar to some mammalian cells, such as fibroblasts and nerve cells (Barsoum et al., (2006) EMBO J. 25: 3900-3911; Amchenkova et al., (1988) J. Cell. Biol. 107: 481-495), mitochondria in S. pombe are organized into tubular structures (Chiron et al., (2007) Methods Mol. Biol. 372: 91-105), as shown in FIG. 5A. […] Wild type S. pombe cells were cultured to mid-log phase in YES liquid medium were treated with rotenone (6.4 μg/ml) for 4 hr, stained with the fluorescent mitochondrial dye MitoTracker Green FM (MTGreen), and visualized by fluorescence microscopy. […]

S. pombe cells [4] = conditions: 0.3 μg/ml rotenone, Heslot et al. 1970; cited from earlier work
S. pombe cells [5] = experiment: Dihydroethidium (DHE) staining for ROS; assay type: cell-based, Schizosaccharomyces pombe; conditions: rotenone 6.4 μg/ml; for ROS levels (DHE): wild type
Protocol: as §1
Rotenone induces generation of ROS in S. pombe cells. Since rotenone induces generation of ROS in mammalian cell cultures and oxidative stress damage in the brains of rats chronically treated with the toxin (Li et al., (2003) J. Biol. Chem. 278: 8516-8525; Greenamyre et al., (2003) Parkinsonism Relat. Disord. 9 (Suppl 2): S59-64), it was determined whether rotenone also induces generation of ROS in S. pombe cells. To do this, wild type S. pombe cells were treated with rotenone and periodically analyzed the treated cells by staining with dihydroethidium (DHE), which is oxidized to ethidium in the presence of ROS (Bindokas et al., (1996) J. Neurosci. 16: 1324-1336).
Pmk1, but not Spc1, is required for normal clearance of rotenone-induced ROS in S. pombe cells. To investigate further the effects of rotenone on spc1Δ and pmk1Δ cells, we treated the two strains and wild type S. pombe cells were treated with rotenone for 12 hrs and stained cells from treated and control cultures with DHE for detection of ROS by fluorescence microscopy.

S. pombe cells [6] = experiment: Rotenone sensitivity assay (serial dilution spot growth on agar media); assay type: cell-based, Schizosaccharomyces pombe; conditions: for sensitivity of growth to rotenone: 16 μM rotenone; for sensitivity of growth to rotenone relative to wild type: rotenone 6.4 μg/ml; for inhibition of S. pombe growth: wild type
Protocol: Yeast strains, media, and genetic methods. The following S. pombe strains were used in this study: SP870 (h90 ade6-210 leu1-32 ura4-D18), SPSPC1 U90 (h90 ade6-210 leu1-32 ura4-D18 spc1::ura4), SPM1L (h90 leu1-32 ura4-D18 spm1::LEU2). S. pombe cultures were grown in either YES medium (0.5% yeast extract; 3% dextrose; and adenine, histidine, leucine, lysine and uracil, each at 250 mg/L) or Edinburgh minimal medium (EMM) containing required auxotrophic supplements (Alfa et al., (1993) Experiments with fission yeast: A laboratory course manual, Cold Spring Harbor Laboratory Press, Cold Spring Harbor, N.Y., incorporated herein by reference in its entirety). Agar media contained 2% Bacto agar (Difco).
Rotenone sensitivity assay. Rotenone stock solutions (10 mM in DMSO) were prepared just prior to carrying out each experiment and protected from light. Rotenone containing YES and EMM agar media were prepared by mixing rotenone stock solution with growth medium as required for the desired rotenone concentration (up to 6.4 μg/ml). For agar media, rotenone stock solution was added after autoclaving and cooling of the media to approximately 45° C. DMSO was added to control media at concentrations equivalent to that in media supplemented with rotenone. Plates were incubated at room temperature for 3-12 hr prior to use. S. pombe strains were cultured overnight in YES liquid medium at 30° C. to mid-log phase, concentrated to 5×10^6 cells/ml, and serially diluted (1:5). Three μl of each dilution was spotted onto rotenone containing plates and control plates and the plates were incubated at 30° C. for 2-4 days, as indicated in relevant figure legends.
Effects of rotenone on S. pombe cell growth in nutrient-enriched and nutrient-limited conditions. To investigate the effects of rotenone on S. pombe cell growth, we prepared complex rich (YES) and synthetic defined minimal (EMM) agar media containing concentrations of rotenone ranging from 0.2 to 6.4 μg/ml. […] Since rotenone has a relatively short half-life in aqueous solutions, growth media containing the toxin were prepared freshly prior to each experiment. Mid-log phase cultures of wild type S. pombe cells were serially diluted and tested for growth on YES and EMM plates containing rotenone and on control media lacking the toxin.
To determine whether spc1Δ and/or pmk1Δ mutants are hypersensitive to rotenone, log phase cultures of the two strains and wild type S. pombe cells were serially diluted and tested for growth on YES medium containing rotenone and on control medium lacking the toxin. […] The reduced sensitivity of spc1Δ cells to rotenone was most evident after incubation of the cultures for two days (FIG. 8A), with the difference after 3 days of growth being apparent from examination of colony sizes at the end of the cell dilution series on the respective plates (FIG. 8B).

NCCO [ethanolamine]
suppression of rotenone-sensitive phenotype (S. pombe cells [1]; psd1-3Δ (phosphatidylethanolamine deficient) strain, YES with 16 μM rotenone, 1 mM ethanolamine): suppressed

C=C(C)[C@H]1Cc2c(ccc3c2O[C@@H]2COc4cc(OC)c(OC)cc4[C@@H]2C3=O)O1 [rotenone]
defects in S. pombe cell morphology (S. pombe cells [2]): does not induce obvious defects
cells with fragmentation of mitochondrial localization (S. pombe cells [3]; pmk1Δ cells, rotenone 6.4 μg/ml, 4 hr): approximately 70 % of cells
effect on mitochondrial localization (S. pombe cells [3]; spc1Δ cells, rotenone 6.4 μg/ml, 4 hr): marginal effect
persistence of fragmented pattern of mitochondrial localization after initial exposure (S. pombe cells [3]; wild type, continued culturing in rotenone containing medium, data not shown): at least 24 hrs
effect on S. pombe cell growth (S. pombe cells [4]): negligible effect
rotenone-induced ROS levels (DHE) relative to wild type (S. pombe cells [5]; pmk1Δ cells, 12 hrs): dramatically higher
rotenone-induced ROS levels (DHE) (S. pombe cells [5]; spc1Δ cells, 12 hrs): only a very slight increase
ROS levels (DHE) (S. pombe cells [5]; 6 hrs): higher levels of ROS than control cells
ROS levels (DHE) (S. pombe cells [5]; 12 hr): Higher levels of ROS
sensitivity of growth to rotenone (S. pombe cells [6]; aks1Δ mutant, complex YES medium): strongly hypersensitive
sensitivity of growth to rotenone (S. pombe cells [6]; cgs1Δ mutant, complex YES medium): does not significantly increase the sensitivity
sensitivity of growth to rotenone (S. pombe cells [6]; cgs1Δaks1Δ double mutant, complex YES medium): allowing the yeast to proliferate in the presence of rotenone
sensitivity of growth to rotenone (S. pombe cells [6]; pka1Δ mutant, complex YES medium): strongly hypersensitive
sensitivity of growth to rotenone relative to wild type (S. pombe cells [6]; pmk1Δ mutant, YES medium, 3 days): profoundly more sensitive
sensitivity of growth to rotenone (S. pombe cells [6]; psd1Δ psd2Δ psd3Δ triple deletion, complex medium): increased sensitivity
sensitivity of growth to rotenone relative to wild type (S. pombe cells [6]; spc1Δ mutant, YES medium, 2-3 days): slightly less sensitive
sensitivity of growth to rotenone (S. pombe cells [6]; spc1Δ mutant, complex YES medium): not hypersensitive
inhibition of S. pombe growth (S. pombe cells [6]; EMM minimal medium, 1.6 μg/ml rotenone, 4 days at 30° C.): slightly inhibited
inhibition of S. pombe growth (S. pombe cells [6]; EMM minimal medium, 6.4 μg/ml rotenone, 4 days at 30° C.): strongly inhibited
inhibition of S. pombe growth (S. pombe cells [6]; YES medium, 6.4 μg/ml rotenone, 3 days at 30° C.): modest inhibition
inhibition of S. pombe growth (S. pombe cells [6]; YES medium, rotenone concentrations lower than 6.4 μg/ml (from 0.2 μg/ml)): not on YES containing lower concentrations

O=C1O[C@H]([C@@H](O)CO)C(O)=C1O [ascorbic acid]
reversal of rotenone-induced proliferation inhibition (S. pombe cells [1]; pka1Δ S. pombe cells): reversed
reversal of rotenone-induced proliferation inhibition (S. pombe cells [1]; wild-type S. pombe cells, nutrient stressed conditions): reversed
